Reference: ChEMBL document CHEMBL1201862, “PubChem BioAssay data set” (2004)
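All cell lines were grown in 96-well plates and treated with compound for 48 hours. GI50 = concentration required for 50% inhibition of growth.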 Active and inactive are the calls of the source. No stated cut-off is given here; in the data, active = GI50 up to about 1.1 µM and inactive = higher.

Key:
Assay in all cases: NCI-60 cell line screen, 48 h
Malme-3M = test system: Malme-3M
SW-620 = test system: SW-620
BT-549 = test system: BT-549
IGROV-1 = test system: IGROV-1
K562 = test system: K562
SN12C = test system: SN12C
OVCAR-4 = test system: OVCAR-4
SNB-75 = test system: SNB-75
MCF7 = test system: MCF7
MDA-N = test system: MDA-N
M14 = test system: M14
SF-539 = test system: SF-539
LOX IMVI = test system: LOX IMVI
RPMI-8226 = test system: RPMI-8226
CAKI-1 = test system: CAKI-1
Hs-578T = test system: Hs-578T
EKVX = test system: EKVX
OVCAR-3 = test system: OVCAR-3
U-251 = test system: U-251
SK-MEL-2 = test system: SK-MEL-2

For `c1ccc(-c2sc(-c3cccs3)cc2Cc2cccs2)cc1`, the GI50 (Malme-3M) was > 10 µM (inactive), the GI50 (SW-620) was > 10 µM (inactive) and the GI50 (BT-549) was > 10 µM (inactive). For the same molecule, the GI50 (IGROV-1) was > 10 µM (inactive), the GI50 (K562) was > 10 µM (inactive) and the GI50 (SN12C) was > 10 µM (inactive). For the same molecule, the GI50 (OVCAR-4) was > 10 µM (inactive), the GI50 (SNB-75) was > 10 µM (inactive) and the GI50 (MCF7) was > 10 µM (inactive). The GI50 (MDA-N) was > 10 µM (inactive), the GI50 (M14) was > 10 µM (inactive) and the GI50 (SF-539) was > 10 µM (inactive). For the same molecule, the GI50 (LOX IMVI) was > 10 µM (inactive), the GI50 (RPMI-8226) was > 10 µM (inactive) and the GI50 (CAKI-1) was > 10 µM (inactive). For the same molecule, the GI50 (Hs-578T) was > 10 µM (inactive) and the GI50 (EKVX) was > 10 µM (inactive).
With `Cc1cc2nc(N3C(=O)/C(=C/c4ccc(N(C)C)cc4)N=C3c3ccccc3)sc2cc1C` the GI50 (OVCAR-3) was 41.5 µM (inactive), the GI50 (SW-620) was 24.7 µM (inactive) and the GI50 (BT-549) was 44.5 µM (inactive). The GI50 (IGROV-1) was 16.3 µM (inactive), the GI50 (U-251) was 32.7 µM (inactive) and the GI50 (K562) was 25.9 µM (inactive). The GI50 (SN12C) was 18.7 µM (inactive), the GI50 (OVCAR-4) was 29.4 µM (inactive) and the GI50 (SNB-75) was 22.9 µM (inactive). The GI50 (MCF7) was 0.515 µM (active), the GI50 (MDA-N) was 11.6 µM (inactive) and the GI50 (M14) was 26.7 µM (inactive). The GI50 (SK-MEL-2) was 24.1 µM (inactive), the GI50 (SF-539) was 22.2 µM (inactive) and the GI50 (LOX IMVI) was 30.1 µM (inactive). The GI50 (RPMI-8226) was 23.8 µM (inactive), the GI50 (CAKI-1) was 43.9 µM (inactive) and the GI50 (Hs-578T) was 30.3 µM (inactive). For the same molecule, the GI50 (EKVX) was 23 µM (inactive).
In the case of `COC(=O)c1ccc(NC(=O)O/N=C(\Cl)C(C)C)cc1`, the GI50 (Malme-3M) is reported as 1.56 µM (inactive), the GI50 (OVCAR-3) is reported as 1.97 µM (inactive) and the GI50 (SW-620) is reported as 1.93 µM (inactive). For the same molecule, the GI50 (BT-549) was 2.67 µM (inactive), the GI50 (IGROV-1) was 13.9 µM (inactive) and the GI50 (U-251) was 16.6 µM (inactive). The GI50 (K562) was 1.3 µM (inactive), the GI50 (SN12C) was 6.19 µM (inactive) and the GI50 (OVCAR-4) was 18.1 µM (inactive). For the same molecule, the GI50 (SNB-75) was 7.78 µM (inactive), the GI50 (MCF7) was 5.7 µM (inactive) and the GI50 (MDA-N) was 8.89 µM (inactive). The GI50 (M14) was 2.99 µM (inactive), the GI50 (SK-MEL-2) was 16.8 µM (inactive) and the GI50 (LOX IMVI) was 1.74 µM (inactive). For the same molecule, the GI50 (RPMI-8226) was 1.83 µM (inactive), the GI50 (CAKI-1) was 1.69 µM (inactive) and the GI50 (Hs-578T) was 10.8 µM (inactive). The GI50 (EKVX) was 3.22 µM (inactive).
In the case of `O=C(CN1CCOCC1)c1ccc2c(c1)oc(=O)n2CCN1CCCC1`, the GI50 (Malme-3M) is reported as > 100 µM (inactive), the GI50 (OVCAR-3) is reported as > 100 µM (inactive) and the GI50 (SW-620) is reported as > 100 µM (inactive). For the same molecule, the GI50 (BT-549) was > 100 µM (inactive), the GI50 (IGROV-1) was > 100 µM (inactive) and the GI50 (U-251) was > 100 µM (inactive). The GI50 (K562) was > 100 µM (inactive), the GI50 (SN12C) was > 100 µM (inactive) and the GI50 (SNB-75) was > 100 µM (inactive). The GI50 (MCF7) was > 100 µM (inactive), the GI50 (MDA-N) was > 100 µM (inactive) and the GI50 (M14) was > 100 µM (inactive). The GI50 (SK-MEL-2) was > 100 µM (inactive), the GI50 (SF-539) was > 100 µM (inactive) and the GI50 (LOX IMVI) was > 100 µM (inactive). For the same molecule, the GI50 (RPMI-8226) was > 100 µM (inactive), the GI50 (CAKI-1) was > 100 µM (inactive) and the GI50 (Hs-578T) was > 100 µM (inactive). For the same molecule, the GI50 (EKVX) was > 100 µM (inactive).
`Cc1ccc(S(=O)(=O)N/N=C2/CC3CCC4CC2CC34)cc1` (configuration not stated) was tested, and the GI50 (Malme-3M) was > 100 µM (inactive), the GI50 (OVCAR-3) was > 100 µM (inactive) and the GI50 (SW-620) was > 100 µM (inactive). For the same molecule, the GI50 (BT-549) was > 100 µM (inactive), the GI50 (IGROV-1) was > 100 µM (inactive) and the GI50 (U-251) was > 100 µM (inactive). The GI50 (K562) was 93.5 µM (inactive), the GI50 (SN12C) was > 100 µM (inactive) and the GI50 (SNB-75) was > 100 µM (inactive). The GI50 (MCF7) was > 100 µM (inactive), the GI50 (MDA-N) was > 100 µM (inactive) and the GI50 (M14) was > 100 µM (inactive). The GI50 (SK-MEL-2) was > 100 µM (inactive), the GI50 (SF-539) was > 100 µM (inactive) and the GI50 (LOX IMVI) was > 100 µM (inactive). For the same molecule, the GI50 (RPMI-8226) was > 100 µM (inactive), the GI50 (CAKI-1) was > 100 µM (inactive) and the GI50 (Hs-578T) was 88.3 µM (inactive). The GI50 (EKVX) was 61.5 µM (inactive).
In the case of `CN(C)CCCSc1nc2ccccc2[nH]1`, the GI50 (Malme-3M) is reported as > 100 µM (inactive), the GI50 (OVCAR-3) is reported as > 100 µM (inactive) and the GI50 (SW-620) is reported as > 100 µM (inactive). For the same molecule, the GI50 (BT-549) was > 100 µM (inactive), the GI50 (IGROV-1) was > 100 µM (inactive) and the GI50 (U-251) was > 100 µM (inactive). The GI50 (K562) was > 100 µM (inactive), the GI50 (SN12C) was > 100 µM (inactive) and the GI50 (OVCAR-4) was > 100 µM (inactive). The GI50 (SNB-75) was > 100 µM (inactive), the GI50 (MCF7) was > 100 µM (inactive) and the GI50 (MDA-N) was > 100 µM (inactive). For the same molecule, the GI50 (M14) was > 100 µM (inactive), the GI50 (SK-MEL-2) was > 100 µM (inactive) and the GI50 (LOX IMVI) was > 100 µM (inactive). For the same molecule, the GI50 (RPMI-8226) was > 100 µM (inactive), the GI50 (CAKI-1) was > 100 µM (inactive) and the GI50 (Hs-578T) was > 100 µM (inactive). For the same molecule, the GI50 (EKVX) was > 100 µM (inactive).
